Reference: USRE47078E1, “Polymorphic forms of N-[4-(trifluoromethyl)benzyl]-4-methoxybutyramide” (Laboratorio Farmaceutico C.T. S.R.L., priority 2007, dated 2018)
Entries after “also recorded” stand apart in the source; their conditions may differ.

What was measured:
[1] = Thermodynamic stability / interconversion of the polymorphs; type: physicochemical
rats [2] = experiment: Irwin's test and body temperature in rats; type: in vivo, rat
Method: (§1) The possible adverse effects of polymorphic Form A on the CNS, cardiovascular, respiratory and immune functions were evaluated in vitro and in vivo (rats and dogs) in different experimental models. In the in vivo tests, the tested compound was always given by single oral administration at the doses of 100, 300 and 1000 mg/kg.
Neurobehavioural effects of polymorphic Form A have been investigated according to the Irwin Test by using a standard observation battery, which allows the assessment of both peripheral and central nervous system activities (e.g. motor activity, motor co-ordination, somatic sensory/motor reflex responses, autonomic responses); body temperature was measured by means of an electronic thermometer.

rats [3] = experiment: Hexobarbital sleeping time in rats; type: in vivo, rat
Method: as §1
The test consists in the measurement of the duration of hexobarbital-induced sleep; substances with a sedative or antisleep action cause increase or decrease respectively in the duration of hexobarbital induced sleep.

rats [4] = experiment: Proconvulsant activity in rats (pentylenetetrazol); type: in vivo, rat; settings: with pentylenetetrazol
Method: as §1

HERG tail current = biological target: T1, HERG tail current (Homo sapiens, UniProt Q12809); experiment: HERG tail current, patch clamp in HEK-293 cells; type: cell-based
T1 construct: expressed in transfected cells; host or cells: HEK-293
T1 sequence (Q12809 whole entry): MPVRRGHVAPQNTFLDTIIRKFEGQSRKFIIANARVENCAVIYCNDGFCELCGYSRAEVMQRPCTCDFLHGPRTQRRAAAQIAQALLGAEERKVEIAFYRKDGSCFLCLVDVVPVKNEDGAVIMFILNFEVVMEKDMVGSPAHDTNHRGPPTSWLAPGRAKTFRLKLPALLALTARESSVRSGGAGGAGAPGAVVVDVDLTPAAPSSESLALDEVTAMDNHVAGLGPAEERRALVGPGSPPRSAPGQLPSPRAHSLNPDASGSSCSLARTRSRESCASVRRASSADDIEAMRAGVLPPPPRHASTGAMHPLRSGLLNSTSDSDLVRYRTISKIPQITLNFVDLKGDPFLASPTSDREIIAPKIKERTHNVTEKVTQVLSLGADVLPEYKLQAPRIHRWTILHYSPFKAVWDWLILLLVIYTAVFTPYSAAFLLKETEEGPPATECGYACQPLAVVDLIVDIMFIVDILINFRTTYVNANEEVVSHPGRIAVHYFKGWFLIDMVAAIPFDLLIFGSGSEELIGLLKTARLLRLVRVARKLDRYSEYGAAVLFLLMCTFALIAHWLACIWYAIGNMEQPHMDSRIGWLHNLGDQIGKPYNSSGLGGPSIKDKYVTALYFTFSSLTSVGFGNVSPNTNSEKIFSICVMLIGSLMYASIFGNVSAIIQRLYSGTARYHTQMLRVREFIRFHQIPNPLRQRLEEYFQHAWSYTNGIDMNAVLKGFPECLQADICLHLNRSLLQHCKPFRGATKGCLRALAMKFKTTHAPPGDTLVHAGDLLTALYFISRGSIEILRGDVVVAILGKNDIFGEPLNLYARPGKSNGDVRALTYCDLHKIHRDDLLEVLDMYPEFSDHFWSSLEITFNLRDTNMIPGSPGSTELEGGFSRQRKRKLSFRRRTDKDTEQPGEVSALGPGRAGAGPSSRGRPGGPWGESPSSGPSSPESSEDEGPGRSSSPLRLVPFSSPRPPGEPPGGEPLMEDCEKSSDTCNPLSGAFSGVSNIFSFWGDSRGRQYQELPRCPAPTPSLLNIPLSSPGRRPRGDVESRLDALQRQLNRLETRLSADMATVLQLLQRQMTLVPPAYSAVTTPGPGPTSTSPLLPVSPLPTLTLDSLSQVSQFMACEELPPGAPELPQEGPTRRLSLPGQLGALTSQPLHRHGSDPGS
Text: A possible blocking effect of polymorphic Form A on Herg tail current recorded from HEK-293 cells (Human Embryonic Kidney cells) stably transfected with HERGG-1 cDNA was investigated. The method consisted in measuring the HERG tail current by using the patch clamp techniques in the whole cell configuration. Compounds which inhibited HERG current were recognized to prolong the cardiac action potential and increase QT interval.

[5] = test system: isolated canine Purkinje fibres; experiment: Cardiac action potential in isolated canine Purkinje fibres
Method: A possible adverse effect induced by polymorphic Form A on cardiac action potential was evaluated in isolated canine Purkinje fibres. Transmembrane action potential was measured by means of the intracellular microelectrode technique; this method is recommended to detect the capacity of a substance to induce prolongation of the QT interval.

conscious rats = experiment: Respiratory evaluation in conscious rats (whole body plethysmography); type: in vivo, rat
Method: as §1
The effect of polymorphic Form A on respiratory parameters (respiratory rate, peak inspiratory and peak expiratory flows, inspiration and expiration times, airway resistance index, minute volume and tidal volume) was assessed in conscious rats after single oral administration. Respiration was measured by the whole body plethysmography method.

immune system = experiment: PCF test (Plaque Forming Cells) in rats; type: in vivo, rat
Method: A possible effect of polymorphic Form A on the immune system was evaluated by using the method system of Plaque Forming Cells (PCF) in the rat, following oral administration to rats for 28 days at the doses of 150, 250 and 500 mg/kg. The method is based on the stimulation of the immune system with an antigenic agent (sheep's red blood cells) and on the evaluation of the effect of the test item on the immune response. The immune response was assessed by measuring the proportion of splenocytes which produced antibodies against the antigenic agent (Plaque Forming Cells) in presence of complement. […] In fact, statistical analysis evidenced a significativity at 150 mg/kg, but not at 250 mg/kg; these findings might indicate that the effects is observed at these doses could be due to the variability normally present in this test as heterogeneity in immune response is often seen and it is likely to be related to individual differences in immune sensitivity, […]

Acute toxicity in mouse = settings: in vivo, single
Method: (§2) Single and repeated-dose toxicity studies in rodents and non-rodents were carried out to support the clinical trials of the test compound, i.e. polymorphic Form A. Single toxicity studies were performed in mice and rats by the intraperitoneal and the oral routes. Repeated oral studies (28 days administration followed by 14 days recovery period) were performed in rats and dogs.

Acute toxicity in rat = settings: in vivo, single
Method: as §2

Salmonella typhimurium = experiment: Salmonella Typhimurium Reverse Mutation Assay (Ames test); type: cell-based
Method: The mutagenic potential of polymorphic Form A was evaluated in vitro in the Salmonella Typhimurium Reverse Mutation Assay according to EC guidelines. […] Therefore polymorphic Form A is to be considered non-mutagenic in this Salmonella typhimurium reverse mutation assay.

Rat (Bone marrow Cells) = experiment: Micronucleus test in rat bone marrow; type: in vivo; settings: os, single, 500-2000 mg/kg, 24 and 48 hours
Method: Any clastogenic or spindle poison activity of polymorphic Form A was investigated by detecting micronucleated polychromatic erythrocytes in the bone marrow of treated rats. The study was conducted in compliance with the EC Guidelines. The method involved searching for the presence of a chromosome fragment, or a number of chromosomes, resulting from a deletion or a mitotic spindle poison effect, in the polychromatic erythrocytes in the bone marrow. Clastogenic products may produce, at the moment of mitosis, chromosome breakage, while spindle poisons disturb the structure of the mitotic spindles. An acentric fragment of a chromosome that has not migrated normally is not retained in the nucleus of the daughter cell, and appears in the cytoplasm. It is then known as a Howell-Jolly body or micronucleus. The micronucleus can be detected in polychromatic erythrocytes, as these cells expel their main nucleus shortly after the last mitosis and the micronucleus remains in the red blood cells. Male and female Sprague Dawley rats were treated orally once with 2000-1000-500 mg/kg of polymorphic Form A and 24 and 48 hours after the treatment their femurs were sampled and bone marrow cells were extracted.

COCCCC(=O)NCc1ccc(C(F)(F)F)cc1 [Polymorphic Form A, N-[4-(trifluoromethyl)benzyl]-4-methoxybutyramide]
Thermodynamic stability, conversion of one form into the other [1]: thermodynamically stable, with no conversion of one into the other
Body temperature (rats [2]; 100 mg/kg single oral): not affected
Spontaneous locomotor activity (Irwin test) (rats [2]; 100 mg/kg single oral): transient decrease in spontaneous locomotor activity
Posture / neurobehavioural signs (Irwin test) (rats [2]; 1000 mg/kg single oral, all the effects were reversible): tip toe position, ataxic and subsequently a lying recumbent or flattened position
Effect on locomotion (Irwin test) (rats [2]; higher doses (300 and 1000 mg/kg) single oral, with myorelaxant effect and decrease in awareness): more marked and more long lasting
Body temperature (rats [2]; higher doses (300 and 1000 mg/kg), up to four hours): significant decrease in body temperature
Time taken to fall asleep and duration of the sleep (rats [3]; highest dose (1000 mg/kg) oral): significant decrease of the time taken to fall asleep and of the duration of the sleep
Sleep duration (rats [3]; intermediate dose (300 mg/kg) oral): slight decrease in sleep duration
Time taken to fall asleep and duration of the sleep (rats [3]; lowest dose (100 mg/kg) oral): No statistical significant effect
Time of occurrence of seizures (rats [4]; 100 and 300 mg/kg oral): increase in the time of occurrence of seizures
Proconvulsant effect (rats [4]; all the doses (100, 300, 1000 mg/kg oral)): no statistical significant proconvulsant effect
Reduction of HERG tail current (HERG tail current; 10^−4 M, highest concentration tested): about 50%
Inhibition of HERG tail current (HERG tail current; 10^−6 and 10^−5 M): slight and non dose-dependent decrease
Inhibition of HERG tail current (HERG tail current; 10^−7 M): no statistically significant inhibition
Inhibition of HERG tail current, highest value reached (HERG tail current; all concentrations, 70% is the threshold for an active compound): < 70%
Action potential duration of repolarisation ([5]; 10^−4 M): significant decrease in action potential duration of repolarisation
Action potential parameters ([5]; 10^−7, 10^−6 and 10^−5 M, normal or low stimulation rates): no statistically significant effect
Early or delayed after-depolarisation ([5]; all the concentrations tested): neither early nor delayed after-depolarisation were recorded
Respiratory parameters (conscious rats; 100 mg/kg single oral): no relevant effect on respiratory parameters
Peak inspiratory and peak expiratory flows, minute volume, airway resistance index (conscious rats; 100, 300 and 1000 mg/kg single oral): No statistically change
Respiratory rate and tidal volume (conscious rats; 300 and 1000 mg/kg single oral): tachypnoea associated to a transient reduction in tidal volume
Immunosuppressant activity (Plaque Forming Cells) (immune system; 500 mg/kg oral, 28 days): clear-cut
Immunosuppressant activity (Plaque Forming Cells) (immune system; 150 and 250 mg/kg oral, 28 days): comparable borderline effect
Immunosuppressant activity (Plaque Forming Cells) (immune system; oral, 28 days, 150, 250 and 500 mg/kg): slight and not dose-dependent immunosuppressant activity
LD50 (Acute toxicity in mouse; ip, dose-range 200-1000): ~800 mg/kg
LD50 (Acute toxicity in mouse; oral, os, dose-range 2000-4000): > 4000 mg/kg
LD50 (Acute toxicity in rat; ip, dose-range 200-1000): ~800 mg/kg
LD50 (Acute toxicity in rat; oral, os, dose-range 2000-4000): > 4000 mg/kg
Genotoxicity, Ames test result (Salmonella typhimurium; S. typhimurium, in vitro, 3-500 μg/ml): Negative
Gene mutations by base pair changes or frameshifts (Salmonella typhimurium; TA 1535, TA 1537, TA 98, TA 100, TA102, 50 to 3000 μg/ml, with and without metabolic activation): did not induce gene mutations
Genotoxicity, Micronucleus test result (Rat (Bone marrow Cells)): no clastogenic activity; also recorded: Negative
